Target: T1, recombinant human ALK protein (Homo sapiens, UniProt Q9UM73)
T1 construct: purchased Life Technologies Inc. PV3867
Assay: LanthaScreen TR-FRET in vitro inhibitory activity assay of ALK
Format: biochemical
Conditions: compound at 2ug/ml
Procedure: All reagents and anhydrous solvents were obtained from commercial sources and used as received. The positive control inhibitors of ALK, crizotinib and ceritinib, were purchased from Bangshunda Technology and Selleck Chemicals, respectively. The compounds were dissolved in 100% dimethyl sulfoxide (DMSO) as a 10 mM stock solution. The final DMSO concentration in each reaction was less than 1%. Purified recombinant human ALK protein (Catalog number: PV3867) as well as reagents for TR-FRET assay, including Lantha Screen™ Tb-PY20 (Catalog number: PV3552), Fluorescein-Poly GT (Catalog number: PV3610), ATP (Catalog number: PV3227), Kinase Quench Buffer (Catalog number: P2832), Kinase Buffer (Catalog number: PV3189), and Antibody Dilution Buffer (Catalog number: PV3574), were all obtained from Life Technologies Inc.
Lantha Screen™ kinase assay based on TR-FRET technology was used to measure the inhibitory activity of the screened compounds. All the assays were carried out in 384-well plate format. The 4 × test compounds were firstly prepared before the enzyme reaction starts. The 4 × recombinant human ALK protein and 2 × Substrate/ATP mixture were separately prepared in 50 mM HEPES (pH = 7.5), 0.01% BRIJ-35, 10 mM MgCl2, 4 mM MnCl2, 1 mM EGTA, and 2 mM DTT. The final 10 μL kinase reaction consists of 5 μL 1 × Substrate/ATP mixture (0.2 μM substrate and 5 μM ATP), 2.5 μL ALK (5 ng/ml ALK protein), and 2.5 μL 1 × test compounds with desired concentration. The assay plate was shook on a plate shaker for 30 seconds to mix the reactions thoroughly. After 1 hour kinase reaction incubation at room temperature (20 ~ 25 °C), 10 μL of pre-prepared 20 mM EDTA and 4 nM Tb-labeled antibody solution was then added to terminate the kinase reactions and to initiate antibody binding, and the assay plate was incubated for another 1 hour at room temperature. Then, the assay plate was placed into a fluorescence plate reader (BioTek Synergy™ 4) to measure both fluoresce in and terbium emission signals (excitation: 340 nm; emission: 520 and 495 nm, respectively) with 100 μs delay time and 200 μs integration time. To determine the IC50 values, the resulted inhibitory activity calculated from TR-FRET emission ratio (i.e. fluoresce in emission intensity/terbium emission intensity) was plotted against the concentration of inhibitor, and the data was fitted to a dose-response curve with a variable slop.

T1 sequence (Q9UM73 1058-1620 limits assumed): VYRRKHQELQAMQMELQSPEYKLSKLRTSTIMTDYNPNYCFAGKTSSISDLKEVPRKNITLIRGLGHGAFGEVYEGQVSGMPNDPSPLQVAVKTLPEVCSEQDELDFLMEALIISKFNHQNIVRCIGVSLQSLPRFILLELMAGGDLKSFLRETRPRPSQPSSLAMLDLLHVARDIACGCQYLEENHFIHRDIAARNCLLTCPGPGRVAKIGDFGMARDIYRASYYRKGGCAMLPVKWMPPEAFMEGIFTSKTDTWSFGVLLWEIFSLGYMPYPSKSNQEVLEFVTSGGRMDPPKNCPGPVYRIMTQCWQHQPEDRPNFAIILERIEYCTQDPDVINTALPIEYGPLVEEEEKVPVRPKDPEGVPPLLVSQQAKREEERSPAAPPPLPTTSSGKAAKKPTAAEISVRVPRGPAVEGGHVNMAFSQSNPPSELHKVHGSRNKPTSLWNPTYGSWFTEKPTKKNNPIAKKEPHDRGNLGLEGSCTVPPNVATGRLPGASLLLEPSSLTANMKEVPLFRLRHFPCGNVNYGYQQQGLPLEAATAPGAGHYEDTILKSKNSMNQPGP

Structure (SMILES)	Averaged Enzymatic Inhibition @ 2ug/ml (%)
O=C1/C(=C/c2ccc(-c3cccc(Cl)c3)o2)CCC/C1=C\c1ccc(-c2cccc(Cl)c2)o1 [AA-504/07472022]	40.455%
c1ccc2cc3c(ccc4ccc5cc6c(ccc7ccccc76)cc5c43)cc2c1 [AB-131/42301451]	28.575%
Cc1ccc(-c2nc(N3CC4(C)CC3CC(C)(C)C4)c3ccccc3n2)cc1 (centres unmarked) [AE-641/40974923]	13.995%
c1ccc(-c2oc3ncn4nc(COc5cccc6ccccc56)nc4c3c2-c2ccccc2)cc1 [AE-848/12917024]	13.565%
CC(C)c1ccc(-c2c(C#N)c(N)nc3sc(C(=O)Nc4ccc(Cl)cc4)c(N)c23)cc1 [AE-848/15116593]	-8.375%
Cc1ccccc1NC(=O)c1sc2nc(N)c(C#N)c(-c3ccc(C(C)C)cc3)c2c1N [AE-848/15116597]	8.9%
Cc1ccc(NC(=O)c2sc3nc(N)c(C#N)c(-c4ccc(C(C)C)cc4)c3c2N)cc1Cl [AE-848/15116611]	10.08%
O=C1C2=C(NC3=C(C(=O)c4ccccc43)C23C(=O)c2cccc4cccc3c24)c2ccccc21 [AE-848/15341192]	13.145%
COc1ccc(-n2c(-c3ccc(-c4ccccc4)cc3)nnc2-c2cccc3ccccc23)cc1 [AE-848/32007021]	5.085%
Cc1cccc(C)c1OCC(O)CN1CCC(CN2C(=O)c3cccc4cccc(c34)C2=O)CC1 (centres unmarked) [AF-399/14388040]	-20.41%
O=C1c2cccc3cccc(c23)C(=O)N1CC1CCN(S(=O)(=O)/C=C/c2ccccc2)CC1 [AF-399/14864072]	-20.25%
OC(CNCCc1ccccc1)Cn1c(-c2ccccc2)c(-c2ccccc2)c2ccc3ccccc3c21 (centres unmarked) [AF-399/15128092]	-33.405%
Cc1cc(C)c2c(c1)c(-c1ccccc1)c(-c1ccccc1)n2CC(O)CNCc1ccccc1 (centres unmarked) [AF-399/15128108]	-21.105%
Cc1cc(C)c2c(c1)c(-c1ccccc1)c(-c1ccccc1)n2CC(O)CNc1ccc(C(C)C)cc1 (centres unmarked) [AF-399/15128126]	32.1%
Cc1cc(C)c2c(c1)c(-c1ccccc1)c(-c1ccccc1)n2CC(O)CN1CCC(C)CC1 (centres unmarked) [AF-399/15128132]	-9.645%
CC(C)N(C(=O)Cn1c(/C=C/c2ccccc2)nc2ccccc21)c1ccccc1 [AF-399/15335536]	5.725%
Cc1ccc(-c2ccc(/C=C3/SC(N4CCN(c5cccc(C)c5)CC4)=NC3=O)o2)cc1 [AF-399/40881300]	13.735%
Cc1ccc(C2C(C(=O)c3cc4ccccc4o3)=C(O)C(=O)N2c2nc3c(C)cc(C)cc3s2)cc1 (centres unmarked) [AF-399/42017504]	-5.97%
Nc1cc(NC(=O)c2cn(-c3ccccc3)nc2-c2ccccc2)cc(Oc2ccccc2)c1 [AG-205/33688061]	14.9%
C=CCN(C(=O)c1ccc2nc(-c3ccccc3)c(-c3ccccc3)nc2c1)c1ccccc1 [AG-205/36717014]	19.28%
COc1cc(/C=N/n2c(-c3ccccc3)n[nH]c2=S)cc(OC)c1O [AG-205/36915079]	18.19%
CCc1ccc(-n2c(CSc3nnnn3-c3ccccc3)nc3ccccc3c2=O)cc1 [AG-205/37086057]	40.815%
Cc1ccccc1NC(=O)c1cc2ccccc2c(C=Nc2ccccc2Cl)c1O [AG-664/32341038]	6.53%
Cc1cc(C)c2oc(-c3ccc(C)c(NS(=O)(=O)c4cc([N+](=O)[O-])ccc4Cl)c3)nc2c1 [AG-690/08629011]	26.47%
Cc1ccc(NC(=O)c2ccc(-c3ccccc3)cc2)c(OC(=O)c2ccc(-c3ccccc3)cc2)c1 [AG-690/09396003]	3.685%
CCCn1c(=O)c(C(=O)NNS(=O)(=O)c2ccc(Br)cc2)c(O)c2ccccc21 [AG-690/11765341]	9.265%
